From ChEMBL document CHEMBL5352456, “Isocyanides in med chem: A scaffold hopping approach for the identification of novel 4-isocyanophenylamides as potent antibacterial agents against methicillin-resistant Staphylococcusaureus” (Eur J Med Chem, 2023) come the findings set out here.

Each structure is given as a SMILES string.

Assay type in all cases: functional
Common to all, as to settings: time 16-20 hrs

Experiment [1] deals with Staphylococcus aureus. Briefly: Antibacterial activity against methicillin-resistant Staphylococcus aureus ATCC 33592 assessed as reduction in microbial growth measured for 16 to 20 hrs by microdilution assay. For orientation: Dilution methods test growth across graded concentrations, often in twofold steps.
Experiment [2] concerns Staphylococcus epidermidis. Briefly: Antibacterial activity against Staphylococcus epidermidis ATCC 49134 assessed as reduction in microbial growth measured for 16 to 20 hrs by microdilution assay.
The test system of the next experiment is Escherichia coli. In words: Antibacterial activity against Escherichia coli ATCC 25922 assessed as inhibition of bacterial growth measured for 16 to 20 hrs by microdilution assay.
Experiment [3] relates to Staphylococcus epidermidis. In words: Antibacterial activity against Staphylococcus epidermidis ATCC 12228 assessed as reduction in microbial growth measured for 16 to 20 hrs by microdilution assay.
In experiment [4] the test system is Staphylococcus aureus. Briefly: Antibacterial activity against Staphylococcus aureus ATCC 29213 assessed as reduction in microbial growth measured for 16 to 20 hrs by microdilution assay.
Another experiment deals with Klebsiella pneumoniae. In words: Antibacterial activity against Klebsiella pneumoniae ATCC 700603 assessed as inhibition of bacterial growth measured for 16 to 20 hrs by microdilution assay.
For experiment [5], the system named is Staphylococcus aureus. In words: Antibacterial activity against methicillin-resistant Staphylococcus aureus ATCC 43300 assessed as reduction in microbial growth measured for 16 to 20 hrs by microdilution assay.
The test system of experiment [6] is Staphylococcus aureus. In words: Antibacterial activity against Staphylococcus aureus ATCC 25923 assessed as reduction in microbial growth measured for 16 to 20 hrs by microdilution assay.
For a further experiment, the system named is Pseudomonas aeruginosa. Briefly: Antibacterial activity against Pseudomonas aeruginosa ATCC 10145 assessed as inhibition of bacterial growth measured for 16 to 20 hrs by microdilution assay.
Experiment [7] deals with Staphylococcus epidermidis. In words: Antibacterial activity against Staphylococcus epidermidis ATCC 35984 assessed as reduction in microbial growth measured for 16 to 20 hrs by microdilution assay.
Experiment [8] concerns Staphylococcus aureus. In words: Antibacterial activity against Staphylococcus aureus ATCC 6538 assessed as reduction in microbial growth measured for 16 to 20 hrs by microdilution assay.

As a reminder, the MIC is the least concentration at which growth counts as inhibited. Regarding `[C-]#[N+]c1ccc(NC(=O)CCCCCCCC)cc1`, the MIC with Staphylococcus aureus [1] was 8 µM; in experiment [2] it was 0.5 µM; with Escherichia coli, at least 64 µM; in experiment [3] it was 1 µM; with Staphylococcus aureus [4] it was 8 µM; in the experiment on Klebsiella pneumoniae, at least 64 µM. In addition, the MIC was 4 µM in the experiment with Staphylococcus aureus [5]; 2 µM in the experiment on Staphylococcus aureus [6]; at least 64 µM with Pseudomonas aeruginosa; 0.5 µM in experiment [7]; 8 µM with Staphylococcus aureus [8].

With `[C-]#[N+]c1ccc(NC(=O)c2ccccc2)cc1`, the MIC in the experiment with Escherichia coli was at least 64 µM; in the experiment on Staphylococcus aureus [4], over 8 µM; in the experiment with Klebsiella pneumoniae, at least 64 µM; in the experiment with Staphylococcus aureus [6], over 8 µM; in the experiment with Pseudomonas aeruginosa, at least 64 µM; in the experiment on Staphylococcus aureus [8] it was over 8 µM.

In the case of `[C-]#[N+]c1ccc(NC(=O)Cc2c(Cl)cccc2Cl)cc1`, the MIC in the experiment on Escherichia coli was at least 64 µM; in the experiment on Staphylococcus aureus [4] it was over 8 µM; in the experiment on Klebsiella pneumoniae it was at least 64 µM; in the experiment on Staphylococcus aureus [6], over 8 µM; with Pseudomonas aeruginosa, at least 64 µM; with Staphylococcus aureus [8] it was over 8 µM.

Take `[C-]#[N+]c1ccc(NC(=O)Cc2ccccc2Cl)cc1`: the minimal inhibitory concentration (MIC) in the experiment with Escherichia coli was at least 64 µM; in the experiment on Staphylococcus aureus [4], over 8 µM; in the experiment on Klebsiella pneumoniae it was at least 64 µM; with Staphylococcus aureus [6] it was over 8 µM; in the experiment on Pseudomonas aeruginosa, at least 64 µM; with Staphylococcus aureus [8], over 8 µM.

On to `[C-]#[N+]c1ccc(NC(=O)c2ccc(Br)cc2)cc1`, for which the MIC in the experiment on Escherichia coli was at least 64 µM; with Staphylococcus aureus [4], over 8 µM; in the experiment on Klebsiella pneumoniae, at least 64 µM; in the experiment on Staphylococcus aureus [6], over 8 µM; in the experiment with Pseudomonas aeruginosa it was at least 64 µM; in the experiment with Staphylococcus aureus [8], over 8 µM.

For the molecule `[C-]#[N+]c1ccc(NC(=O)CCc2cccnc2)cc1`, the MIC is at least 64 µM in the experiment with Escherichia coli; over 8 µM in the experiment on Staphylococcus aureus [4]; at least 64 µM in the experiment on Klebsiella pneumoniae; over 8 µM in the experiment with Staphylococcus aureus [6]; at least 64 µM in the experiment on Pseudomonas aeruginosa; over 8 µM with Staphylococcus aureus [8].

Consider `[C-]#[N+]c1ccc(NC(=O)c2cccnc2)cc1`, for which the MIC in the experiment on Escherichia coli is at least 64 µM; in the experiment on Staphylococcus aureus [4], over 8 µM; in the experiment with Klebsiella pneumoniae, at least 64 µM; in the experiment with Staphylococcus aureus [6] it was over 8 µM; in the experiment on Pseudomonas aeruginosa it was at least 64 µM; with Staphylococcus aureus [8] it was over 8 µM.

Turning to `[C-]#[N+]c1ccc(NC(=O)CC2CCCCC2)cc1`, the MIC in the experiment on Escherichia coli was at least 64 µM; with Staphylococcus aureus [4] it was over 8 µM; in the experiment on Klebsiella pneumoniae, at least 64 µM; in the experiment with Staphylococcus aureus [6], over 8 µM; with Pseudomonas aeruginosa, at least 64 µM; with Staphylococcus aureus [8], over 8 µM.

In the case of `[C-]#[N+]c1ccc(NC(=O)Cc2cc(OC)c(OC)c(OC)c2)cc1`, the MIC in the experiment on Escherichia coli was at least 64 µM; in the experiment on Staphylococcus aureus [4] it was over 8 µM; with Klebsiella pneumoniae, at least 64 µM; in the experiment with Staphylococcus aureus [6], over 8 µM; in the experiment on Pseudomonas aeruginosa, at least 64 µM; in the experiment with Staphylococcus aureus [8], over 8 µM.

With `[C-]#[N+]c1ccc(C(=O)Nc2ccccc2)cc1`, the minimum inhibitory concentration (MIC) is at least 64 µM with Escherichia coli; over 8 µM in the experiment on Staphylococcus aureus [4]; at least 64 µM with Klebsiella pneumoniae; over 8 µM in the experiment with Staphylococcus aureus [6]; at least 64 µM in the experiment with Pseudomonas aeruginosa; over 8 µM with Staphylococcus aureus [8].

As for `[C-]#[N+]c1ccc(NC(=O)c2ccc(C(=O)OC)cc2)cc1`, the minimum inhibitory concentration (MIC) in the experiment with Escherichia coli was at least 64 µM; in the experiment with Staphylococcus aureus [4], over 8 µM; with Klebsiella pneumoniae, at least 64 µM; in the experiment with Staphylococcus aureus [6] it was over 8 µM; in the experiment on Pseudomonas aeruginosa, at least 64 µM; in the experiment on Staphylococcus aureus [8], over 8 µM.

With `CN(C)[C@@H]1C(O)=C(C(N)=O)C(=O)[C@@]2(O)C(O)=C3C(=O)c4c(O)cccc4[C@@](C)(O)[C@H]3C[C@@H]12` [TETRACYCLINE], the MIC with Staphylococcus aureus [1] was over 4.52 µM; in experiment [2], 0.27 µM; in experiment [3], over 4.52 µM; in the experiment with Staphylococcus aureus [4], 1.13 µM; in the experiment on Staphylococcus aureus [5] it was 1.13 µM; in the experiment on Staphylococcus aureus [6] it was 1.13 µM. Also, the MIC amounted to 4.52 µM in experiment [7] and 1.13 µM in the experiment on Staphylococcus aureus [8].

Consider `[C-]#[N+]c1ccc(NC(=O)c2ccccc2[N+](=O)[O-])cc1`, for which the minimum inhibitory concentration (MIC) in the experiment with Escherichia coli is at least 64 µM; in the experiment on Staphylococcus aureus [4], over 8 µM; with Klebsiella pneumoniae, at least 64 µM; in the experiment on Staphylococcus aureus [6] it was over 8 µM; in the experiment on Pseudomonas aeruginosa, at least 64 µM; with Staphylococcus aureus [8], over 8 µM.

Regarding `[C-]#[N+]c1ccc(NC(=O)Cc2ccccc2OC)cc1`, the MIC is at least 64 µM with Escherichia coli; over 8 µM in the experiment with Staphylococcus aureus [4]; at least 64 µM with Klebsiella pneumoniae; over 8 µM in the experiment with Staphylococcus aureus [6]; at least 64 µM with Pseudomonas aeruginosa; over 8 µM in the experiment with Staphylococcus aureus [8].

On to `[C-]#[N+]c1ccc(NC(=O)C(=O)c2ccccc2)cc1`, for which the minimal inhibitory concentration (MIC) in the experiment on Escherichia coli is at least 64 µM; with Staphylococcus aureus [4] it was over 8 µM; with Klebsiella pneumoniae, at least 64 µM; in the experiment with Staphylococcus aureus [6] it was over 8 µM; with Pseudomonas aeruginosa, at least 64 µM; with Staphylococcus aureus [8] it was over 8 µM.

For `[C-]#[N+]c1ccc(NC(=O)c2ccc(OC)cc2)cc1`, the MIC with Escherichia coli is at least 64 µM; in the experiment with Staphylococcus aureus [4], over 8 µM; in the experiment with Klebsiella pneumoniae, at least 64 µM; in the experiment on Staphylococcus aureus [6], over 8 µM; in the experiment with Pseudomonas aeruginosa, at least 64 µM; with Staphylococcus aureus [8] it was over 8 µM.

Regarding `[C-]#[N+]c1ccc(NC(=O)c2ccccc2C(F)(F)F)cc1`, the MIC was at least 64 µM in the experiment with Escherichia coli; over 8 µM in the experiment on Staphylococcus aureus [4]; at least 64 µM with Klebsiella pneumoniae; over 8 µM in the experiment with Staphylococcus aureus [6]; at least 64 µM with Pseudomonas aeruginosa; over 8 µM in the experiment on Staphylococcus aureus [8].

Regarding `[C-]#[N+]c1ccc(NC(=O)Cc2ccncc2)cc1`, the MIC in the experiment on Escherichia coli is at least 64 µM; in the experiment with Staphylococcus aureus [4], over 8 µM; in the experiment on Klebsiella pneumoniae, at least 64 µM; in the experiment on Staphylococcus aureus [6], over 8 µM; in the experiment with Pseudomonas aeruginosa, at least 64 µM; in the experiment on Staphylococcus aureus [8], over 8 µM.

For `[C-]#[N+]c1ccc(NC(=O)CC(C)C)cc1`, the minimum inhibitory concentration (MIC) with Escherichia coli was at least 64 µM; in the experiment on Staphylococcus aureus [4], over 8 µM; in the experiment with Klebsiella pneumoniae, at least 64 µM; in the experiment on Staphylococcus aureus [6] it was over 8 µM; in the experiment on Pseudomonas aeruginosa, at least 64 µM; in the experiment on Staphylococcus aureus [8], over 8 µM.

With `[C-]#[N+]c1ccc(NC(=O)CCc2cc(OC)c(OC)c(OC)c2)cc1`, the MIC with Escherichia coli is at least 64 µM; in the experiment on Staphylococcus aureus [4] it was over 8 µM; in the experiment on Klebsiella pneumoniae it was at least 64 µM; with Staphylococcus aureus [6], over 8 µM; in the experiment with Pseudomonas aeruginosa, at least 64 µM; in the experiment with Staphylococcus aureus [8], over 8 µM.

With `N#Cc1ccc(NC(=O)COc2ccccc2)cc1`, the MIC was at least 64 µM in the experiment on Escherichia coli; over 8 µM with Staphylococcus aureus [4]; at least 64 µM with Klebsiella pneumoniae; over 8 µM in the experiment on Staphylococcus aureus [6]; at least 64 µM with Pseudomonas aeruginosa; over 8 µM with Staphylococcus aureus [8].

For the molecule `N#Cc1ccc(NC(=O)Cc2cccc(Cl)c2)cc1`, the MIC is at least 64 µM with Escherichia coli; over 8 µM with Staphylococcus aureus [4]; at least 64 µM in the experiment on Klebsiella pneumoniae; over 8 µM in the experiment with Staphylococcus aureus [6]; at least 64 µM in the experiment with Pseudomonas aeruginosa; over 8 µM with Staphylococcus aureus [8].

As for `[C-]#[N+]c1ccc(NC(=O)Cc2c[nH]c3ccccc23)cc1`, the minimum inhibitory concentration (MIC) was at least 64 µM in the experiment with Escherichia coli; over 8 µM in the experiment with Staphylococcus aureus [4]; at least 64 µM with Klebsiella pneumoniae; over 8 µM in the experiment with Staphylococcus aureus [6]; at least 64 µM with Pseudomonas aeruginosa; over 8 µM with Staphylococcus aureus [8].

With `N#Cc1ccc(NC(=O)Cc2ccccc2)cc1`, the MIC was at least 64 µM in the experiment on Escherichia coli; over 8 µM in the experiment on Staphylococcus aureus [4]; at least 64 µM in the experiment with Klebsiella pneumoniae; over 8 µM with Staphylococcus aureus [6]; at least 64 µM in the experiment on Pseudomonas aeruginosa; over 8 µM with Staphylococcus aureus [8].

For `[C-]#[N+]c1ccc(NC(=O)Cc2ccccc2[N+](=O)[O-])cc1`, the MIC was at least 64 µM with Escherichia coli; over 8 µM in the experiment with Staphylococcus aureus [4]; at least 64 µM with Klebsiella pneumoniae; over 8 µM in the experiment on Staphylococcus aureus [6]; at least 64 µM in the experiment with Pseudomonas aeruginosa; over 8 µM with Staphylococcus aureus [8].
